US20150276767A1, “SYSTEMS AND METHODS FOR IDENTIFYING CANCERS HAVING ACTIVATED PROGESTERONE RECEPTORS” (THE UNIVERSITY OF SYDNEY, priority 2014, published 2015)

Columns and labels:
PR = target: T1, PR (Homo sapiens, UniProt P06401); conditions: relative to the synthetic analogue ORG2058; cited from earlier work
T1 sequence (P06401 1-933): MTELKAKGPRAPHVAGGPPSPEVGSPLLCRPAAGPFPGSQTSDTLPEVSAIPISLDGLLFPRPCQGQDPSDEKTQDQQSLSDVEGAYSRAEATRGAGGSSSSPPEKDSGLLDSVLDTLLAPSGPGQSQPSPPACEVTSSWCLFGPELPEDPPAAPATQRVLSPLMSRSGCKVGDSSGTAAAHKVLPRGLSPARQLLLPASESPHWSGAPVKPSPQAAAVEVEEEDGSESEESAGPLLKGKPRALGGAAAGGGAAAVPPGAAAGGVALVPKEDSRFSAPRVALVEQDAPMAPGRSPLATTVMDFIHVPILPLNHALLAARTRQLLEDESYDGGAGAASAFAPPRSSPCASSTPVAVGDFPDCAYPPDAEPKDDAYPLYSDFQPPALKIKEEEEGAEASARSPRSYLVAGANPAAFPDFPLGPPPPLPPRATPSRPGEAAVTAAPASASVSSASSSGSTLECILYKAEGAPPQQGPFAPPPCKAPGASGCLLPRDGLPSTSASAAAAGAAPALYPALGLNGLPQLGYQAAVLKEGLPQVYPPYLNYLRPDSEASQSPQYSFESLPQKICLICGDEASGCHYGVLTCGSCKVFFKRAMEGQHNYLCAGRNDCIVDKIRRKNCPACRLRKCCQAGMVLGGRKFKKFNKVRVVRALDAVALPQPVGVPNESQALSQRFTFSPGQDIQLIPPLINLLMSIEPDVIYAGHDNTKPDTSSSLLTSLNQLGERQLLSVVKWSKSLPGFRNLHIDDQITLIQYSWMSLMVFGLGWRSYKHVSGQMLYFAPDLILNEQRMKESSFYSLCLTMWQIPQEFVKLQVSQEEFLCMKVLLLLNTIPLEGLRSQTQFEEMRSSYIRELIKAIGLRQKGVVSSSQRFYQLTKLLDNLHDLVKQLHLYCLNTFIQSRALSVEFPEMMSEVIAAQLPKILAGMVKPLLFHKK

[1] = tested on: progestin-regulated genes in T-47D cells; assay: Expression profiling in T-47D cells; format: cell-based, human
Description: (§1) Total RNA was isolated using RNAqueous purification columns (Invitrogen). Total RNA (500 ng) was amplified and biotin labelled using Illumina TotalPrep reagents (Invitrogen). The amplified samples (750 ng) were hybridized to human whole genome HT-12 gene expression bead arrays using the recommended Illumina reagents and following the manufacturer's protocol. Raw data were analysed using Genome Studio software (Illumina). After background subtraction data and cubic spline normalization, differential expression p values were determined using the Illumina custom model of Genome Studio. Data were further analysed using Microsoft Excel and SPSS statistical software. Hierarchical clustering and self organizing map clustering were performed using GenePattern.
(§2) Onapristone ablated progestin regulation of all but 5 genes in T-47D and 6 genes in HCC1428.

[2] = tested on: progesterone receptor (PR) binding to genomic regions in HCC1428 breast cancer cells; assay: ChIP-PCR of PR binding regions in HCC1428 cells; format: cell-based, human
Description: Cells were cultured to 80% confluency in 15 cm tissue culture dishes, then treated for 45 minutes with 10 nM ORG2058 or vehicle. Chromatin was subsequently cross-linked by the addition of formaldehyde to the culture medium to a final concentration of 1% and incubation for 10 minutes at 37° C. Media were immediately removed and the cells were washed with cold phosphate buffered saline and harvested by scraping. Cells were collected by centrifugation and pellets were lysed 10 minutes at 4° C. in SDS buffer (1% SDS; 10 mM EDTA; 50 mM Tris-HCl, pH 8). The lysates were sonicated at 4° C. with a Branson 450 sonicator, using seven one minute bursts at 40% amplitude and 60% duty, each separated by a rest of at least one minute. Lysates were centrifuged at 13,000×g at 4° C. for 15 minutes to remove debris. […]
Directed ChIP was performed using the same protocol as described for ChIP-seq. Target templates were quantitated using Platinum Sybr Green reagents (Invitrogen) in a RotorGene 6000 real-time PCR machine. Directed ChIP was carried out as described above and purified gDNA fragments were diluted 2 to 5-fold prior to quantitation by real-time qPCR. […]

[3] = tested on: progesterone receptor (PR) binding to genomic regions in T-47D breast cancer cells; assay: ChIP-PCR of PR binding regions in T-47D cells; format: cell-based, human
Description: Cells were cultured to 80% confluency in 15 cm tissue culture dishes, then treated for 45 minutes with 10 nM ORG2058 or vehicle. Chromatin was subsequently cross-linked by the addition of formaldehyde to the culture medium to a final concentration of 1% and incubation for 10 minutes at 37° C. Media were immediately removed and the cells were washed with cold phosphate buffered saline and harvested by scraping. Cells were collected by centrifugation and pellets were lysed 10 minutes at 4° C. in SDS buffer (1% SDS; 10 mM EDTA; 50 mM Tris-HCl, pH 8). The lysates were sonicated at 4° C. with a Branson 450 sonicator, using seven one minute bursts at 40% amplitude and 60% duty, each separated by a rest of at least one minute. Lysates were centrifuged at 13,000×g at 4° C. for 15 minutes to remove debris. […] Supernatants were diluted 1:10 with IP buffer (0.5% NP-40; 50 mM Tris, pH 8; 120 mM NaCl; 0.5 mM PMSF; Complete protease inhibitor cocktail, Roche, Ryde, Australia) and pre-cleared by incubation with Dynabeads M-280 sheep anti-mouse IgG magnetic beads (Invitrogen, Mulgrave, Australia), with gentle rotation at 4° C. for at least 2 h to reduce non-specific binding to the secondary antibody beads. Genomic DNA fragments that were bound to PR were isolated by rotation overnight at 4° C. with in-house hPRa6 and hPRa7 mouse monoclonal anti-PR antibodies and fresh sheep anti-mouse IgG magnetic beads (40 ul per 1.4 ml diluted lysate). Beads were washed sequentially with IP buffer, high salt wash buffer (0.5% NP-40, 50 mM Tris, pH 8, 500 mM NaCl, 0.5 mM PMSF), lithium wash buffer (250 mM LiCl, 0.5% NP-40, 1% sodium deoxycholate, 1 mM EDTA, pH 8, 10 mM Tris-HCl, pH 8) and TE (10 mM Tris, pH 8, 1 mM EDTA). Isolated DNA fragments were eluted twice for 15 minutes at room temperature using elution buffer (1% SDS, 0.1M NaHCO3). Cross-links were reversed by addition of 0.25M NaCl and heating to 65° C. for at least 6 h. DNA fragments were purified using Qiagen PCR purification columns (Qiagen, Doncaster, Australia). DNA fragments isolated by PR chromatin immunoprecipitation from ORG2058 treated cells were sequenced on an Illumina GA-IIx sequencer at the Ramaciotti Centre for Gene Function Analysis (University of New South Wales, Australia) and GeneWorks (Hindmarsh, Australia). Input DNA isolated from the pre-cleared ORG2058 treated samples were sequenced as a baseline control. An aliquot of DNA was isolated from the ORG2058-treated, pre-cleared sample, to serve as an input DNA control sample in next-generation sequencing.
Directed ChIP was performed using the same protocol as described for ChIP-seq. Target templates were quantitated using Platinum Sybr Green reagents (Invitrogen) in a RotorGene 6000 real-time PCR machine. Directed ChIP was carried out as described above and purified gDNA fragments were diluted 2 to 5-fold prior to quantitation by real-time qPCR.
We conducted ChIP-PCR in T-47D cells and a second breast cancer cell line HCC1428, with ORG2058, onapristone, their combination or vehicle. The concentrations used were 1 nM ORG2058 and 100 nM onapristone.

[4] = tested on: progestin-regulated genes in HCC1428 cells; assay: Expression profiling in HCC1428 cells; format: cell-based, human; conditions: onapristone with 1 nM ORG2058
Description: as §1, §2

[5] = 1 nM ORG2058, in one or both cell lines (T-47D, HCC1428)

CC(=O)[C@H]1CC[C@H]2[C@@H]3CCC4=CC(=O)CC[C@]4(C)[C@H]3CC[C@]12C [progesterone]
Dissociation from PR compared with ORG2058 (PR): more rapidly

CC[C@@H]1C[C@H]2[C@@H]3CCC4=CC(=O)CC[C@@H]4[C@H]3CC[C@]2(C)[C@H]1C(=O)CO [ORG2058, (8R,9S,10R,13S,14S,16R,17S)-16-ethyl-17-(2-hydroxyacetyl)-13-methyl-2,6,7,8,9,10,11,12,14,15,16,17-dodecahydro-1H-cyclopenta[a]phenanthren-3-one]
Differentially expressed probes [1, 5]: 309 probes | Genes regulated [1, 5]: 267 genes | PR binding regions with binding by ORG2058-liganded PR confirmed ([2]; 1 nM ORG2058, ten regions tested): 9 of the 10 | ORG effects at the concentration used (preliminary experiments) ([3]; 1 nM ORG2058, cell line of preliminary experiments not stated): maximal | PR binding regions with binding by ORG2058-liganded PR confirmed ([3]; T-47D, 1 nM ORG2058, ten regions tested): 9 of the 10

CN(C)c1ccc([C@H]2C[C@]3(C)[C@@H](CC[C@]3(O)CCCO)[C@@H]3CCC4=CC(=O)CCC4=C32)cc1 [onapristone, (8S,11R,13R,14S,17S)-11-[4-(dimethylamino)phenyl]-17-hydroxy-17-(3-hydroxypropyl)-13-methyl-1,2,6,7,8,11,12,14,15,16-decahydrocyclopenta[a]phenanthren-3-one]
Genes whose progestin regulation was not ablated by onapristone [4]: 6 genes | Genes whose progestin regulation was not ablated by onapristone ([1]; T-47D, onapristone with 1 nM ORG2058): 5 genes | PR binding regions with attenuation of ORG2058-liganded PR binding by onapristone confirmed ([2]; 100 nM onapristone + 1 nM ORG2058, ten regions tested): 9 of the 10 and attenuated | PR binding in the presence of onapristone alone ([3]; 100 nM onapristone alone, mainly in T-47D cells): PR binding to some targets | Effect of onapristone on ORG effects (preliminary experiments) ([3]; 100 nM onapristone with 1 nM ORG2058, cell line of preliminary experiments not stated): ablated | PR binding regions with attenuation of ORG2058-liganded PR binding by onapristone confirmed ([3]; T-47D, 100 nM onapristone + 1 nM ORG2058, ten regions tested): 9 of the 10 and attenuated
